Laboratory results as given in ChEMBL document CHEMBL4610006, “Tetrahydroquinoline units in flexible heteroarotinoids (Flex-Hets) convey anti-cancer properties in A2780 ovarian cancer cells” (Bioorg Med Chem, 2020).

Experiments:
[1] = biological target: T1, Stress-70 protein, mitochondrial (Homo sapiens, UniProt P38646); experiment: Binding affinity to mortalin substrate binding domain (unknown origin)
A2780 [2] = experiment: Antiproliferative activity against human A2780 cells assessed as cell growth inhibition measured after 72 hrs by CellTiter 96 non-radioactive cell proliferation assay; format: functional, cell-based; conditions: A2780, 72 h
[3] = biological target: T1, Stress-70 protein, mitochondrial
Description: Binding affinity to mortalin substrate binding domain (unknown origin) assessed as change in Gibbs free energy

A2780 [4] = experiment: Antiproliferative activity against human A2780 cells assessed as cell growth inhibition at 2 to 8 uM measured after 72 hrs by CellTiter 96 non-radioactive cell proliferation assay relative to control; format: functional

T1 sequence (P38646 whole entry, the tested form may be a part): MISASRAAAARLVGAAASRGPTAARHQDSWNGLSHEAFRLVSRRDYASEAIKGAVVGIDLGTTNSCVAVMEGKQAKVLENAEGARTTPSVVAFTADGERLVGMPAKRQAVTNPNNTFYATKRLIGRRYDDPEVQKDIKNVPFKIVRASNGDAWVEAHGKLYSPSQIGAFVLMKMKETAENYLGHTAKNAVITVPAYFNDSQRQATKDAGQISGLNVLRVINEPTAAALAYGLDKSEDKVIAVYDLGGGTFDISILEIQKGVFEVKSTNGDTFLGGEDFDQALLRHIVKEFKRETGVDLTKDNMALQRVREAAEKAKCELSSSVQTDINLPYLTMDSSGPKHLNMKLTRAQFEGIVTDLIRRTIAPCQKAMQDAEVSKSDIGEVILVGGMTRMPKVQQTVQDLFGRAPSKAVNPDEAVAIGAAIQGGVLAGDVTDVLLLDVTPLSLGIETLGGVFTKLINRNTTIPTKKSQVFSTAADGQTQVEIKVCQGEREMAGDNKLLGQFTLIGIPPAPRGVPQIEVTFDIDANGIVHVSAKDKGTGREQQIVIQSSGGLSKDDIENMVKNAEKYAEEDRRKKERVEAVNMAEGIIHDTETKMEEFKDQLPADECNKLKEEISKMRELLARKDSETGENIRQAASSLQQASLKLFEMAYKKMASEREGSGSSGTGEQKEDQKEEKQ

IC50 (A2780 [2]) [µM]	deltaG [3] [kcal/mol]	SMILES	Kd [1] [µM]	Efficacy (A2780 [4]) [%]
7.1	-7.9	CC1(C)CCNc2ccc(NC(=S)Nc3ccc([N+](=O)[O-])cc3)cc21	1.6	–
10	–	CN1c2ccc(NC(=S)Nc3ccc([N+](=O)[O-])cc3)cc2C(C)(C)C(O)C1(C)C (configuration not stated)	–	25
13.1	-7.6	CN1c2ccc(NC(=S)Nc3ccc(OC(F)(F)F)cc3)cc2C(C)(C)C(O)C1(C)C (configuration not stated)	2.9	–
6.9	-8.2	CC1(C)CCNc2ccc(NC(=O)Nc3ccc([N+](=O)[O-])cc3)cc21	1.1	–
6.7	-8.4	CN1c2ccc(NC(=O)Nc3ccc(C(F)(F)F)cc3)cc2C(C)(C)C(O)C1(C)C (configuration not stated)	0.7	–
4.4	-8.2	CN1c2ccc(NC(=S)Nc3ccc([N+](=O)[O-])cc3)cc2C(C)(C)C(=O)C1(C)C	1.1	–
–	-8.5	CC1(C)CC(C)(C)c2cc(NC(=S)Nc3ccc([N+](=O)[O-])cc3)ccc2S1 [SHETA-2]	0.6	–
8.4	-8	CN1c2ccc(NC(=O)Nc3ccc([N+](=O)[O-])cc3)cc2C(C)(C)C(O)C1(C)C (configuration not stated)	1.6	–
2.58	-8	CN1c2ccc(NC(=O)Nc3ccc(C(F)(F)F)cc3)cc2C(C)(C)C(=O)C1(C)C	1.5	–
3.8	-8.9	CN1c2ccc(NC(=O)Nc3ccc([N+](=O)[O-])cc3)cc2C(C)(C)C(=O)C1(C)C	0.3	–
2.4	-7.9	CN1c2ccc(NC(=O)Nc3ccc(OC(F)(F)F)cc3)cc2C(C)(C)C(=O)C1(C)C	1.8	–
7.7	-8.2	CN1c2ccc(NC(=O)Nc3ccc(N)cc3)cc2C(C)(C)C(=O)C1(C)C	1.1	–
6	-7.5	CC1(C)CCNc2ccc(NC(=S)Nc3ccc(C(F)(F)F)cc3)cc21	3.3	–
6.6	-8.5	CC1(C)CC[N+](C)(C)c2ccc(NC(=O)Nc3ccc([N+](=O)[O-])cc3)cc21	0.7	–
4.5	-8.7	CN1c2ccc(NC(=S)Nc3ccc([N+](=O)[O-])cc3)cc2C(C)(C)CC1(C)C	0.5	–
7.6	-7.7	CN1c2ccc(NC(=S)Nc3ccc(C(F)(F)F)cc3)cc2C(C)(C)C(O)C1(C)C (configuration not stated)	2.3	–
7.8	-8.2	CN1c2ccc(NC(=O)Nc3ccc(OC(F)(F)F)cc3)cc2C(C)(C)C(O)C1(C)C (configuration not stated)	1.1	–
7.1	-7.2	CC1(C)CCNc2ccc(NC(=S)Nc3ccc(OC(F)(F)F)cc3)cc21	5.4	–
3.9	–	CN1c2ccc(NC(=S)Nc3ccc(C(F)(F)F)cc3)cc2C(C)(C)C(=O)C1(C)C	–	90.8
5.4	-7.7	CN1c2ccc(NC(=S)Nc3ccc(OC(F)(F)F)cc3)cc2C(C)(C)C(=O)C1(C)C	2.4	–
